Data reported in patent US20100298141A1, “SUBSTITUTED PYRIDINE N-OXIDE HERBICIDES” (E. I. DU PONT DE NEMOURS AND COMPANY, priority 2007, published 2010).

Key:
[1] = tested on: Russian thistle; assay: Test C pre-/postemergence test; type: in vivo, Salsola kali; details: for Plant response rating, Russian Thistle: 31 g ai/ha, scale 0 to 100 (0 no effect, 100 complete control)
In short: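 Test chemicals were formulated with surfactant in a non-phytotoxic solvent and sprayed both on freshly planted seeds (preemergence) and on 1- to 4-leaf plants of 2–18 cm (postemergence). Flooded-paddy pots received compound directly into 3 cm of standing water, maintained for the test.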

[2] = tested on: bermudagrass; assay: Test F preemergence test; type: in vivo, Cynodon dactylon; details: scale 0 to 100
In short: (§1)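 Test chemicals were formulated in a non-phytotoxic solvent mixture with surfactant and applied preemergence to planted seeds or postemergence to sugarcane plants. Plants were kept in a greenhouse for 14 to 21 days, then visually evaluated against controls.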

[3] = tested on: Surinam grass; assay: Test F preemergence test; type: in vivo, Brachiaria decumbens; details: scale 0 to 100
In short: as §1

[4] = tested on: goosegrass; assay: Test F preemergence test; type: in vivo, Eleusine indica; details: scale 0 to 100
In short: as §1

[5] = tested on: johnsongrass; assay: Test F preemergence test; type: in vivo, Sorghum halepense; details: scale 0 to 100
In short: as §1

[6] = tested on: pitted morningglory; assay: Test F preemergence test; type: in vivo, Ipomoea lacunosa; details: scale 0 to 100
In short: as §1

[7] = tested on: purple nutsedge; assay: Test F preemergence test; type: in vivo, Cyperus rotundus; details: scale 0 to 100
In short: as §1

[8] = tested on: common ragweed; assay: Test F preemergence test; type: in vivo, Ambrosia elation; details: scale 0 to 100
In short: as §1

[9] = tested on: guineagrass; assay: Test F preemergence test; type: in vivo, Panicum maximum; details: scale 0 to 100
In short: as §1

[10] = tested on: southern sandbur; assay: Test F preemergence test; type: in vivo, Cenchrus echinatus; details: scale 0 to 100
In short: as §1

[11] = tested on: prickly sida; assay: Test F preemergence test; type: in vivo, Sida spinosa; details: scale 0 to 100
In short: as §1

[12] = tested on: Italian ryegrass; assay: Test F preemergence test; type: in vivo, Lolium multiflorum; details: scale 0 to 100
In short: as §1

[13] = tested on: common purslane; assay: Test F preemergence test; type: in vivo, Portulaca oleracea; details: scale 0 to 100
In short: as §1

[14] = tested on: broadleaf signalgrass; assay: Test F preemergence test; type: in vivo, Brachiaria platyphylla; details: scale 0 to 100
In short: as §1

[15] = tested on: naked crabgrass; assay: Test F preemergence test; type: in vivo, Digitaria nuda; details: scale 0 to 100
In short: as §1

[16] = tested on: itchgrass; assay: Test F preemergence test; type: in vivo, Rottboellia cochinchinensis; details: scale 0 to 100
In short: as §1

[17] = tested on: field bindweed; assay: Test F preemergence test; type: in vivo, Convolvulus arvensis; details: scale 0 to 100
In short: as §1

## Cc1cc[n+]([O-])c(S(=O)(=O)C(Cl)c2c(C(F)(F)F)nn(C)c2Cl)c1 (racemic) [Compound 22]
[1]; 62 g ai/ha, Preemergence, scale 0 to 100
  Russian Thistle plant response rating: 100
[1]; Preemergence
  Plant response rating, Russian Thistle: 100
[2]; 62 g ai/ha, Preemergence
  Bermudagrass plant response rating: 80
[2]; 125 g ai/ha, preemergence
  Bermudagrass plant response rating: 90
[2]; Preemergence, 16 g ai/ha
  Plant response rating, Bermudagrass: 0
[2]; Preemergence, 31 g ai/ha
  Plant response rating, Bermudagrass: 35
[3]; 62 g ai/ha, Preemergence
  Surinam Grass plant response rating: 65
[3]; 125 g ai/ha, preemergence
  Surinam Grass plant response rating: 90
[3]; Preemergence, 31 g ai/ha
  Plant response rating, Surinam Grass: 0
[4]; 62 g ai/ha, Preemergence
  Goosegrass plant response rating: 80
[4]; 125 g ai/ha, preemergence
  Goosegrass plant response rating: 98
[4]; Preemergence, 16 g ai/ha
  Plant response rating, Goosegrass: 65
[4]; Preemergence, 31 g ai/ha
  Plant response rating, Goosegrass: 65
[5]; 62 g ai/ha, Preemergence
  Johnsongrass plant response rating: 60
[5]; 125 g ai/ha, preemergence
  Johnsongrass plant response rating: 100
[5]; Preemergence, 16 g ai/ha
  Plant response rating, Johnsongrass: 0
[5]; Preemergence, 31 g ai/ha
  Plant response rating, Johnsongrass: 50
[6]; 62 g ai/ha, Preemergence
  Morningglory plant response rating: 0
[6]; 125 g ai/ha, preemergence
  Morningglory plant response rating: 20
[6]; Preemergence, 16 g ai/ha
  Plant response rating, Morningglory: 0
[6]; Preemergence, 31 g ai/ha
  Plant response rating, Morningglory: 0
[7]; 62 g ai/ha, Preemergence
  Purple Nutsedge plant response rating: 50
[7]; 125 g ai/ha, preemergence
  Purple Nutsedge plant response rating: 60
[7]; Preemergence, 16 g ai/ha
  Plant response rating, Purple Nutsedge: 0
[7]; Preemergence, 31 g ai/ha
  Plant response rating, Purple Nutsedge: 15
[8]; 62 g ai/ha, Preemergence
  Ragweed plant response rating: 50
[8]; 125 g ai/ha, preemergence
  Ragweed plant response rating: 80
[8]; Preemergence, 16 g ai/ha
  Plant response rating, Ragweed: 0
[8]; Preemergence, 31 g ai/ha
  Plant response rating, Ragweed: 0
[9]; 62 g ai/ha, Preemergence
  Guineagrass plant response rating: 90
[9]; 125 g ai/ha, preemergence
  Guineagrass plant response rating: 100
[9]; Preemergence, 16 g ai/ha
  Plant response rating, Guineagrass: 60
[9]; Preemergence, 31 g ai/ha
  Plant response rating, Guineagrass: 80
[10]; 62 g ai/ha, Preemergence
  Sandbur plant response rating: 75
[10]; 125 g ai/ha, preemergence
  Sandbur plant response rating: 98
[10]; Preemergence, 31 g ai/ha
  Plant response rating, Sandbur: 65
[11]; 62 g ai/ha, Preemergence
  Prickly Sida plant response rating: 40
[11]; 125 g ai/ha, preemergence
  Prickly Sida plant response rating: 80
[11]; Preemergence, 16 g ai/ha
  Plant response rating, Prickly Sida: 0
[11]; Preemergence, 31 g ai/ha
  Plant response rating, Prickly Sida: 40
[12]; 62 g ai/ha, Preemergence
  Ryegrass, Italian plant response rating: 70
[12]; 125 g ai/ha, preemergence
  Ryegrass, Italian plant response rating: 70
[12]; Preemergence, 16 g ai/ha
  Plant response rating, Ryegrass, Italian: 0
[12]; Preemergence, 31 g ai/ha
  Plant response rating, Ryegrass, Italian: 20
[13]; 62 g ai/ha, Preemergence
  Purslane plant response rating: 30
[13]; 125 g ai/ha, preemergence
  Purslane plant response rating: 90
[13]; Preemergence, 16 g ai/ha
  Plant response rating, Purslane: 0
[13]; Preemergence, 31 g ai/ha
  Plant response rating, Purslane: 30
[14]; 62 g ai/ha, Preemergence
  Signalgrass plant response rating: 60
[14]; 125 g ai/ha, preemergence
  Signalgrass plant response rating: 80
[14]; Preemergence, 31 g ai/ha
  Plant response rating, Signalgrass: 50
[15]; 62 g ai/ha, Preemergence
  Crabgrass, Naked plant response rating: 80
[15]; 125 g ai/ha, preemergence
  Crabgrass, Naked plant response rating: 100
[15]; Preemergence, 16 g ai/ha
  Plant response rating, Crabgrass, Naked: 40
[15]; Preemergence, 31 g ai/ha
  Plant response rating, Crabgrass, Naked: 75
[16]; 62 g ai/ha, Preemergence
  Itchgrass plant response rating: 0
[16]; 125 g ai/ha, preemergence
  Itchgrass plant response rating: 60
[16]; Preemergence, 16 g ai/ha
  Plant response rating, Itchgrass: 0
[16]; Preemergence, 31 g ai/ha
  Plant response rating, Itchgrass: 0
[17]; 62 g ai/ha, Preemergence
  Field Bindweed plant response rating: 0
[17]; 125 g ai/ha, preemergence
  Field Bindweed plant response rating: 35
[17]; Preemergence, 16 g ai/ha
  Plant response rating, Field Bindweed: 0
[17]; Preemergence, 31 g ai/ha
  Plant response rating, Field Bindweed: 0

## Cc1cc[n+]([O-])c(S(=O)(=O)C(Cl)c2c(C(F)(F)F)nn(C)c2OCC(F)(F)F)c1 (racemic) [Compound 37]
[1]; Preemergence
  Plant response rating, Russian Thistle: 100
[1]; preemergence, 250 g ai/ha, scale 0 (no effect) to 100 (complete control)
  Russian Thistle plant response rating: 100
[2]; 16 g ai/ha, preemergence
  Plant response rating, Bermudagrass: 35
[2]; 62 g ai/ha, Preemergence
  Bermudagrass plant response rating: 65
[2]; 125 g ai/ha, preemergence
  Bermudagrass plant response rating: 75
[2]; Preemergence, 31 g ai/ha
  Plant response rating, Bermudagrass: 35
[3]; 16 g ai/ha, preemergence
  Plant response rating, Surinam Grass: 0
[3]; 125 g ai/ha, preemergence
  Surinam Grass plant response rating: 90
[3]; Preemergence, 62 g ai/ha
  Plant response rating, Surinam Grass: 60
[3]; Preemergence, 31 g ai/ha
  Plant response rating, Surinam Grass: 60
[4]; 16 g ai/ha, preemergence
  Plant response rating, Goosegrass: 65
[4]; 62 g ai/ha, Preemergence
  Goosegrass plant response rating: 75
[4]; 125 g ai/ha, preemergence
  Goosegrass plant response rating: 98
[4]; Preemergence, 31 g ai/ha
  Plant response rating, Goosegrass: 65
[5]; 16 g ai/ha, preemergence
  Plant response rating, Johnsongrass: 30
[5]; 62 g ai/ha, Preemergence
  Johnsongrass plant response rating: 75
[5]; 125 g ai/ha, preemergence
  Johnsongrass plant response rating: 100
[5]; Preemergence, 31 g ai/ha
  Plant response rating, Johnsongrass: 75
[6]; 16 g ai/ha, preemergence
  Plant response rating, Morningglory: 0
[6]; 62 g ai/ha, Preemergence
  Morningglory plant response rating: 0
[6]; 125 g ai/ha, preemergence
  Morningglory plant response rating: 35
[6]; Preemergence, 31 g ai/ha
  Plant response rating, Morningglory: 0
[7]; 16 g ai/ha, preemergence
  Plant response rating, Purple Nutsedge: 0
[7]; 62 g ai/ha, Preemergence
  Purple Nutsedge plant response rating: 0
[7]; 125 g ai/ha, preemergence
  Purple Nutsedge plant response rating: 0
[7]; Preemergence, 31 g ai/ha
  Plant response rating, Purple Nutsedge: 0
[8]; 16 g ai/ha, preemergence
  Plant response rating, Ragweed: 0
[8]; 125 g ai/ha, preemergence
  Ragweed plant response rating: 0
[8]; Preemergence, 62 g ai/ha
  Plant response rating, Ragweed: 0
[8]; Preemergence, 31 g ai/ha
  Plant response rating, Ragweed: 0
[9]; 16 g ai/ha, preemergence
  Plant response rating, Guineagrass: 65
[9]; 62 g ai/ha, Preemergence
  Guineagrass plant response rating: 85
[9]; 125 g ai/ha, preemergence
  Guineagrass plant response rating: 100
[9]; Preemergence, 31 g ai/ha
  Plant response rating, Guineagrass: 75
[10]; 16 g ai/ha, preemergence
  Plant response rating, Sandbur: 35
[10]; 125 g ai/ha, preemergence
  Sandbur plant response rating: 90
[10]; Preemergence, 62 g ai/ha
  Plant response rating, Sandbur: 90
[10]; Preemergence, 31 g ai/ha
  Plant response rating, Sandbur: 70
[11]; 16 g ai/ha, preemergence
  Plant response rating, Prickly Sida: 0
[11]; 62 g ai/ha, Preemergence
  Prickly Sida plant response rating: 35
[11]; 125 g ai/ha, preemergence
  Prickly Sida plant response rating: 90
[11]; Preemergence, 31 g ai/ha
  Plant response rating, Prickly Sida: 15
[12]; 16 g ai/ha, preemergence
  Plant response rating, Ryegrass, Italian: 20
[12]; 125 g ai/ha, preemergence
  Ryegrass, Italian plant response rating: 100
[12]; Preemergence, 62 g ai/ha
  Plant response rating, Ryegrass, Italian: 90
[12]; Preemergence, 31 g ai/ha
  Plant response rating, Ryegrass, Italian: 75
[13]; 16 g ai/ha, preemergence
  Plant response rating, Purslane: 0
[13]; 62 g ai/ha, Preemergence
  Purslane plant response rating: 25
[13]; 125 g ai/ha, preemergence
  Purslane plant response rating: 50
[13]; Preemergence, 31 g ai/ha
  Plant response rating, Purslane: 0
[14]; 16 g ai/ha, preemergence
  Plant response rating, Signalgrass: 20
[14]; 125 g ai/ha, preemergence
  Signalgrass plant response rating: 95
[14]; Preemergence, 62 g ai/ha
  Plant response rating, Signalgrass: 65
[14]; Preemergence, 31 g ai/ha
  Plant response rating, Signalgrass: 35
[15]; 16 g ai/ha, preemergence
  Plant response rating, Crabgrass, Naked: 40
[15]; 62 g ai/ha, Preemergence
  Crabgrass, Naked plant response rating: 40
[15]; 125 g ai/ha, preemergence
  Crabgrass, Naked plant response rating: 100
[16]; 16 g ai/ha, preemergence
  Plant response rating, Itchgrass: 0
[16]; 62 g ai/ha, Preemergence
  Itchgrass plant response rating: 35
[16]; 125 g ai/ha, preemergence
  Itchgrass plant response rating: 80
[16]; Preemergence, 31 g ai/ha
  Plant response rating, Itchgrass: 0
[17]; 16 g ai/ha, preemergence
  Plant response rating, Field Bindweed: 0
[17]; 62 g ai/ha, Preemergence
  Field Bindweed plant response rating: 0
[17]; 125 g ai/ha, preemergence
  Field Bindweed plant response rating: 0
[17]; Preemergence, 31 g ai/ha
  Plant response rating, Field Bindweed: 0
